Experimental data published in PMC2662380 (Journal of medicinal chemistry, 2008).

Assays:
[1] = system: MDA-MB-231 breast cancer cell line; experiment: induction of cell death, trypan blue exclusion assay; format: cell-based, human; conditions: for induction of cell death (in words): different concentrations, 48 hours
caspase-8, PARP = experiment: Western blot analysis of caspase-8 processing and PARP cleavage; conditions: MDA-MB-231, within 24 h

For `CN[C@@H](C)C(=O)N[C@H]1Cc2ccccc2[C@H]2CC[C@@H](C(=O)NC(c3ccccc3)c3ccccc3)N2C1=O` [Compound 5], the “induction of cell death (in words)” value [1] was “capable of inducing cell death in a dose-dependent manner”.

With `CN[C@@H](C)C(=O)N[C@H]1Cc2ccccc2[C@H]2CC[C@@H](C(=O)N[C@@H]3CCCc4ccccc43)N2C1=O` [Compound 6] the “lowest concentration inducing processing of caspase-8 and cleavage of PARP” value (caspase-8, PARP) was 100 nM, the “concentration that effectively induces cell death” value [1] was 100 nM and the “induction of cell death (in words)” value [1] was “most effective”.

For `CN[C@@H](C)C(=O)N[C@H]1Cc2ccccc2[C@H]2CCC[C@@H](C(=O)NC(c3ccccc3)c3ccccc3)N2C1=O` [Compound 8], the “induction of cell death (in words)” value [1] was “least effective”.
